# Active and inactive are the calls of the source.
# Key:
# Bcl-2-related protein A1 = target: T1, Bcl-2-related protein A1 (Mus musculus, UniProt Q07440); assay type: functional;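 note: confirmatory dose–response counterscreen on Bfl-1, used to check hits from a UBC13 polyubiquitin inhibitor campaign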
# T1 sequence (Q07440 whole entry): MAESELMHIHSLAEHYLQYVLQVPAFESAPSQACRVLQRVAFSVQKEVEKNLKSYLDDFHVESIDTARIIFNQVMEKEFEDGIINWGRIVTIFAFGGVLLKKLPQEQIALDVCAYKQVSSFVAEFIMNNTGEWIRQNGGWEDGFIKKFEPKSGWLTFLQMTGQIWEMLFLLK
# [1] = target: T2, Ubiquitin-conjugating enzyme E2 N (Homo sapiens, UniProt P61088); assay type: functional
# T2 sequence (P61088 whole entry): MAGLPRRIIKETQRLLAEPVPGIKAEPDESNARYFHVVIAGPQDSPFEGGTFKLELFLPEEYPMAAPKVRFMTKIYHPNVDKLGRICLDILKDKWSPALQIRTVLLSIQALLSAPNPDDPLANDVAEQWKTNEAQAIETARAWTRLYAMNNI
# [2] = target: T2, Ubiquitin-conjugating enzyme E2 N; assay type: functional; remark: listed apart in the source
# Nonstructural protein 1 = Nonstructural protein 1 (Influenza A virus, UniProt Q194T2); assay type: functional, Influenza A virus (A/California/07/2009(H1N1))
# [3] = target: T3, DNA repair protein RAD52 homolog (Homo sapiens, UniProt P43351); assay type: functional, biochemical
# T3 sequence (P43351 whole entry): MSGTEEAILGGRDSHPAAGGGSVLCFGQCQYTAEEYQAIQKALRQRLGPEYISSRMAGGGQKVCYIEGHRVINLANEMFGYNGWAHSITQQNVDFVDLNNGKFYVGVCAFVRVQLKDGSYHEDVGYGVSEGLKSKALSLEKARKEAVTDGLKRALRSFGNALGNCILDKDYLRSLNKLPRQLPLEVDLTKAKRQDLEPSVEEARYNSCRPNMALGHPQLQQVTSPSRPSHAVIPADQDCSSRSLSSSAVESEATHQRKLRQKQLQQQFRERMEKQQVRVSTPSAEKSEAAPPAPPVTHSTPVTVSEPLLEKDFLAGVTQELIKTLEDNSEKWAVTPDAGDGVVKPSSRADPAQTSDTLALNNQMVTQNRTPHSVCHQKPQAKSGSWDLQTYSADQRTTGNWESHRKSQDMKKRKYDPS
# [4] = target: Dual specificity tyrosine-phosphorylation-regulated kinase 1A (Rattus norvegicus, UniProt Q63470); assay type: biochemical, Homo sapiens
# Escherichia coli = experiment: microbe, parasite or virus in culture
# [5] = microbe, parasite or virus in culture; assay type: functional; conditions: Mycobacterium tuberculosis
# [6] = Luminescence Cell-Based Dose Retest to Confirm Inhibitors of Cancer Stem Cells. [Related pubchem assays (depositor defined):AID2717, AID2721]; assay type: functional; conditions: Homo sapiens
# Melanocortin receptor 4 = Melanocortin receptor 4 (Homo sapiens, UniProt P32245); assay type: functional, cell-based;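 note: Cell-based assay with luminescence read-out, confirmatory dose-response testing for agonist activity of biased ligands at MC4R; human U2OS cells with tagged receptor and beta-arrestin; potency of agonists that increase receptor coupling to beta-arrestin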
# Cytochrome P450 2C19 = Cytochrome P450 2C19 (Homo sapiens, UniProt P33261); experiment: Cytochrome panel assay with activity outcomes. Panel member name: p450-cyp2c19 Compounds with AC50 equal or less than 10 uM are considered active; assay type: functional
# Cytochrome P450 1A2 = target: T4, Cytochrome P450 1A2 (Homo sapiens, UniProt P05177);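 note: PubChem cytochrome P450 panel assay, CYP1A2 panel member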
# T4 sequence (P05177 whole entry): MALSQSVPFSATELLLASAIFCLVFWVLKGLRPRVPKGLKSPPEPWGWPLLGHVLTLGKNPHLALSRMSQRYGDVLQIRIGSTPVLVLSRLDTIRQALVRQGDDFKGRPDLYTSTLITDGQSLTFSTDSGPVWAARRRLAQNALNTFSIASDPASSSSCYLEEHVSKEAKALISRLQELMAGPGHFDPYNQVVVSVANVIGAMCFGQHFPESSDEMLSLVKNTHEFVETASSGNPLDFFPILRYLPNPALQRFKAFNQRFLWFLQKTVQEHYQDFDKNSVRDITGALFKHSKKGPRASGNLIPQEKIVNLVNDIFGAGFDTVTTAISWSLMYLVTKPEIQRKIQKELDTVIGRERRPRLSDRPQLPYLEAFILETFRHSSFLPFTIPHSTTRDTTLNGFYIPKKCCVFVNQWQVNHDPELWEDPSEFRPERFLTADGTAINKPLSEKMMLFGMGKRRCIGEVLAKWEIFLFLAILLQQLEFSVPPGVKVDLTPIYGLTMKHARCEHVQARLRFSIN
# Cytochrome P450 3A4 = Cytochrome P450 3A4 (Homo sapiens, UniProt P08684);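 note: CYP3A4 tested as one member of a cytochrome P450 panel screen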
# [7] = Luminescence Cell-Based Dose Confirmation HTS to Identify Activators of 5'UTR Stem-Loop Driven Alpha-Synuclein mRNA Translation in H4 Neuroglioblastoma Cells. [Related pubchem assays: 1829 (Project Summary), 1814 (Primary HTS)]; assay type: functional
# [8] = Luminescence Cell-Based Dose Response HTS to Identify Activators of Luciferase Translation or Activity in H4 […] Cells. [Related pubchem assays: 1829 (Project Summary), 1814 (Primary HTS)]; assay type: functional
# H4 = experiment: Luminescence Cell-Based Dose Response HTS to Identify Activators of 5'UTR Stem-Loop Driven Prion Protein mRNA Translation in H4 Neuroglioblastoma Cells. [Related pubchem assays: 1829 (Project Summary), 1814 (Primary HTS)]; assay type: functional; conditions: Homo sapiens
# [9] = target: T5, Heat shock factor protein 1 (Mus musculus, UniProt P38532); experiment: decrease of HSF1-responsive luciferase luminescence – cell-based, NIH3T3, dose retest, confirmation (AID 2382); assay type: functional;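 note: NIH3T3 fibroblasts with HSF1-driven luciferase reporter stressed by proteasome inhibitor MG132; luminescence from HSF1-driven luciferase expression after 8 hours of MG132 stress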
# T5 sequence (P38532 whole entry): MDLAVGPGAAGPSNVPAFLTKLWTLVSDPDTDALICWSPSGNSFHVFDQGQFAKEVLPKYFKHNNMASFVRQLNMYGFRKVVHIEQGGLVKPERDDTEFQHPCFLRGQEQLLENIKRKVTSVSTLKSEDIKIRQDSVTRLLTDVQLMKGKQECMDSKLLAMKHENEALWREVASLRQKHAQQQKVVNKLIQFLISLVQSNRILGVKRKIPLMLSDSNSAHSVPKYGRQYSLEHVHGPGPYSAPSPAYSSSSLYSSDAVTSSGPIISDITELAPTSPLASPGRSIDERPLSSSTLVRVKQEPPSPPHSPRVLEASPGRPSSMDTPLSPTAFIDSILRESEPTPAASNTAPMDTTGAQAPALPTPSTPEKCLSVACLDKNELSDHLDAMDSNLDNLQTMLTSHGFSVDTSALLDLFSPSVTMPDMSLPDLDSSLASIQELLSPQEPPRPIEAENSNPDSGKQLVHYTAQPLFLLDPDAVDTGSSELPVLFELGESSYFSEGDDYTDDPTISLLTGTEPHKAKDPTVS
# [10] = HEK-293T viability loss after treatment – luminescence, T-cell screen hits, cytotoxicity control for TCR NF-kB inhibitor project, dose response (AID 489026); assay type: functional, cell-based;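 note: cells exposed to compound about 14 hours before the viability readout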
# Cytochrome P450 2C9 = Cytochrome P450 2C9 (Homo sapiens, UniProt P11712)
# [11] = tested on: Streptococcus sp. 'group A'; experiment: Streptococcus pyogenes SK(-)GAS viability under kanamycin – luminescence, BacTiterGlo, confirmation, counter-screen for streptokinase expression inhibitor project, dose response (AID 1900); assay type: functional, organism-based
# Streptokinase A = target: T6, Streptokinase A (Streptococcus pyogenes serotype M1, UniProt P10520); experiment: viability-normalized secreted streptokinase activity reduction – plasminogen activation absorbance, OD405, dose response (AID 1914); assay type: functional, Streptococcus pyogenes M1 GAS;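 note: secreted streptokinase activity via plasminogen activation per viability signal from cell pellet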
# T6 sequence (P10520 whole entry): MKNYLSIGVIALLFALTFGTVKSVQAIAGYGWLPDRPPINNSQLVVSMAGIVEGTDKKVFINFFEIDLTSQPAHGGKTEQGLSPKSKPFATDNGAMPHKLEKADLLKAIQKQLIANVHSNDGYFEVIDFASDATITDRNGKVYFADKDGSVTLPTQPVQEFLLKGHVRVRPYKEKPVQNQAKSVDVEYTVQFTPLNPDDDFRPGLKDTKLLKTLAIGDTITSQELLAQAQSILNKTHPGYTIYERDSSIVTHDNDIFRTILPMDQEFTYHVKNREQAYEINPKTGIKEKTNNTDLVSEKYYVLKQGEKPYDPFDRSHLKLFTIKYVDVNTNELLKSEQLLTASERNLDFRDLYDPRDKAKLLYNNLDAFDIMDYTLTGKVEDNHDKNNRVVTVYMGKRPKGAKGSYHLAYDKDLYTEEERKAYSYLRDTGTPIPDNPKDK
# Streptococcus = experiment: GAS UMAA2166 growth inhibition – luminescence, BacTiterGlo, counter-screen for streptokinase expression inhibitor project, dose response (AID 1915); assay type: functional, organism-based;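 note: potency for reduction of bacterial viability or growth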
# [12] = luciferase reporter signal suppression in cells – H4 neuroglioma cells, luminescence, dose response (AID 1990); assay type: functional, cell-based
# [13] = Luminescence Cell-Based Dose Response HTS to Identify Inhibitors of 5'UTR Stem-Loop Driven Prion Protein mRNA Translation in H4 Neuroglioblastoma Cells. [Related pubchem assays: 1827 (Project Summary), 1813 (Primary HTS)]; assay type: functional
# [14] = alpha-synuclein stem-loop luciferase translation blockers – H4 neuroglioma cells, luminescence, confirmation (AID 1988); assay type: functional, cell-based
# INS1 = experiment: INS-1E survival protection against cytokine death – cell-based, luminescence, retest, dose response (AID 449756); assay type: functional; conditions: Rattus norvegicus;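 note: cell death triggered by IL-1 beta plus TNF-alpha plus IFN-gamma mixture; protective hits raise ATP signal compared with cytokine alone wells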
# Cysteine protease ATG4B = target: T7, Cysteine protease ATG4B (Homo sapiens, UniProt Q9Y4P1); assay type: functional;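 note: Fluorescence-based dose-response confirmation assay measuring inhibition of ATG4B activity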
# T7 sequence (Q9Y4P1 whole entry): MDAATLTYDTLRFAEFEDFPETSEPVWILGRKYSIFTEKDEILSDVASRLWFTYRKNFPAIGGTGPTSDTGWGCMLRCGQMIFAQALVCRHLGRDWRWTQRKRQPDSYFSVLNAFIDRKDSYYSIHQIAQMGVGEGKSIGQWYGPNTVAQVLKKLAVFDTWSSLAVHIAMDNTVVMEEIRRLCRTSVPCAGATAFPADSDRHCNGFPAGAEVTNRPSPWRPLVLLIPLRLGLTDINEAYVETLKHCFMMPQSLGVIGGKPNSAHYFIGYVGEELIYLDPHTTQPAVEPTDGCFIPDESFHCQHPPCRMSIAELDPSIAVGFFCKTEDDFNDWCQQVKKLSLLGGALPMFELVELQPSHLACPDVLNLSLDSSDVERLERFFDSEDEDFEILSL
# Phospholipase A2 = Phospholipase A2 (Homo sapiens, UniProt P04054); assay type: functional;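 note: confirmatory dose-response counterscreen on phospholipase A2, testing hits that came from an ultra-high-throughput screen for ATG4B inhibitors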
# Phospholipase A2, sequence (P04054 whole entry): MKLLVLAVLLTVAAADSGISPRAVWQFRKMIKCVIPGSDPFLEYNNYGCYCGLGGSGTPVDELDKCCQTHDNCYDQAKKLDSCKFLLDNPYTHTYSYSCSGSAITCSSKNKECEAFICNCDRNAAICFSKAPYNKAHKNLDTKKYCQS
# Cytochrome P450 3A4, sequence (P08684 whole entry): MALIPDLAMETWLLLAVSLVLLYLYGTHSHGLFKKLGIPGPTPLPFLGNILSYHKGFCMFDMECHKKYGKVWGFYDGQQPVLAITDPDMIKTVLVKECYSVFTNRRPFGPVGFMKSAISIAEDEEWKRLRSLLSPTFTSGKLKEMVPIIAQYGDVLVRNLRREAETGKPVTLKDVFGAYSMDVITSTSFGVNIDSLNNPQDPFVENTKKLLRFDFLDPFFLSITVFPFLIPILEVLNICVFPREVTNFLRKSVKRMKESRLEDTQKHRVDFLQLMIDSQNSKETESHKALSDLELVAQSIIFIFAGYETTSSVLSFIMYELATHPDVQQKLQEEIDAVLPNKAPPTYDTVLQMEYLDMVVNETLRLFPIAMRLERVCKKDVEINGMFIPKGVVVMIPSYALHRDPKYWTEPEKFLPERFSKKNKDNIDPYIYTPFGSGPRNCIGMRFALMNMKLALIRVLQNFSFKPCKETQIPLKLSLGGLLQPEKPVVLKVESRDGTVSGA
# Cytochrome P450 2C9, sequence (P11712 whole entry): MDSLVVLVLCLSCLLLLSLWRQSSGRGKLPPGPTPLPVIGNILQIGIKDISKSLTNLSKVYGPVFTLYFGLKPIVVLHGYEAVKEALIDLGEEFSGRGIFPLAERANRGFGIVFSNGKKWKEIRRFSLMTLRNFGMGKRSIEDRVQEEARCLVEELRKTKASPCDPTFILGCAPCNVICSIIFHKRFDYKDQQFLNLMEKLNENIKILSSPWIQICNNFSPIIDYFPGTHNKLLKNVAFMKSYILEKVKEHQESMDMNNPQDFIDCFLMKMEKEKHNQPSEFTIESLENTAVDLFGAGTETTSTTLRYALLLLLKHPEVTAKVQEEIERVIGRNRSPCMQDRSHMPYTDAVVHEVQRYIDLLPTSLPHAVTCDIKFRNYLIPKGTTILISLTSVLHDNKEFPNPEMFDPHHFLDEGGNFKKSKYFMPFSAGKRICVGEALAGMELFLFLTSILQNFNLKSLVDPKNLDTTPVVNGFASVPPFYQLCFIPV
# Melanocortin receptor 4, sequence (P32245 whole entry): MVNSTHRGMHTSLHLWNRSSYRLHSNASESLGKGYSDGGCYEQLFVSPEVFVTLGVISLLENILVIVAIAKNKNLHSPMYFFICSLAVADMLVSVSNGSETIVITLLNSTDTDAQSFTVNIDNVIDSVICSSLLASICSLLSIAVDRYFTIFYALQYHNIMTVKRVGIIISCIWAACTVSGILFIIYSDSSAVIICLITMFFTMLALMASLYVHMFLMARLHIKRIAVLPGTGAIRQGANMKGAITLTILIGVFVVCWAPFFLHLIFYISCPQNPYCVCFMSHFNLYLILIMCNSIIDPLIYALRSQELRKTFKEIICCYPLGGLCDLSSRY
# Nonstructural protein 1, sequence (Q194T2 whole entry): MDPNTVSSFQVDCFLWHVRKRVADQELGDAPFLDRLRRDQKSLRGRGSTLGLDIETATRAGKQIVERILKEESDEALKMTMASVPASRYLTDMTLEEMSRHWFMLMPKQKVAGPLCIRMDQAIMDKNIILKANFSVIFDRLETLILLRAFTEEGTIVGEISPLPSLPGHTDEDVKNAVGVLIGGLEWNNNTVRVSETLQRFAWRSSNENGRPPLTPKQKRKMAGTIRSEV
# Cytochrome P450 2C19, sequence (P33261 whole entry): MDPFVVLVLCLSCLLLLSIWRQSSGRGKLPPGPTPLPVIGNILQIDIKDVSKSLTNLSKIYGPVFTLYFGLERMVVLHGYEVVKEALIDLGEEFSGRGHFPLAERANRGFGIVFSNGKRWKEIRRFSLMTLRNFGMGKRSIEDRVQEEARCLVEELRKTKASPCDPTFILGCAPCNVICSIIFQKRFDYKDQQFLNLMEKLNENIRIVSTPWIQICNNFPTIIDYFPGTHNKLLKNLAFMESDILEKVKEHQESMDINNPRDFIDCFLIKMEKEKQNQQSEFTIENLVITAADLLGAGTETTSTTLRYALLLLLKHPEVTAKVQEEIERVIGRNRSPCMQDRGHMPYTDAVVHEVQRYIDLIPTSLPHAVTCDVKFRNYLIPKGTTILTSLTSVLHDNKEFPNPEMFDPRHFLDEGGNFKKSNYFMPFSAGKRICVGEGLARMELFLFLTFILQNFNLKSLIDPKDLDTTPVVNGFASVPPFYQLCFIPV
compound,measurement,setting,value
O=C(c1ccc(-c2cc(O)c3ncccc3c2)cc1)N1CCNCC1,IC50,Bcl-2-related protein A1,7 µM (active)
same,IC50,[1],3.61 µM (active)
same,IC50,[2],3.14 µM (active)
same,IC50,Nonstructural protein 1,9.74 µM (active)
same,AC50,[3],1.66 µM (active)
Oc1ccc(/C=N/n2c(-c3ccccc3)n[nH]c2=S)cc1,AC50,[4],4.2 µM (active)
Cc1cccc(/C=N/NC(=O)c2cc(C3CC3)nc3ccccc23)n1,AC50,Escherichia coli,37.9 µM (active)
COc1cc2nc(Nc3ccc(C)c(Cl)c3)nc(N)c2cc1OC,CC50,[5],3.77 µM (active)
same,AC50,[6],6.52 µM (active)
same,IC50,Bcl-2-related protein A1,18.7 µM (active)
same,IC50,[1],8.57 µM (active)
same,IC50,[2],5.71 µM (active)
same,EC50,Melanocortin receptor 4,> 89.2 µM (inactive)
same,AC50,[3],9.23 µM (active)
O=C(/C=C/c1ccccc1)Nc1cccnc1Oc1ccccc1F,AC50,[4],11.1 µM (active)
CC(=O)O[C@H]1CC[C@@]2(C)[C@@H](CC[C@H]3[C@H]2CC(=O)[C@]2(C)[C@@H]3C[C@@H](N3CC3)[C@H]2C(C)=O)C1,AC50,Cytochrome P450 2C19,inconclusive
same,AC50,Cytochrome P450 1A2,0.0398 µM (inconclusive)
same,AC50,Cytochrome P450 3A4,inconclusive
Oc1ccc(/C=N/n2c(S)nnc2-c2ccccc2)cc1Br,AC50,[4],11.8 µM (active)
Cc1ccc(N2CN=c3s/c(=C\c4ccccn4)c(=O)n3C2)cc1,EC50,[7],> 120 µM (not active)
same,EC50,[8],29.5 µM (active)
same,EC50,H4,> 120 µM (not active)
same,EC50,[9],> 195 µM (not active)
same,AC50,[4],3.58 µM (active)
O=C(c1cn(Cc2ccccc2)nc1-c1ccccc1)N1CCN(c2ccccn2)CC1,IC50,[10],> 80 µM (inactive)
C=CCN1CCc2c(cc(O)c(O)c2Cl)[C@H](c2ccccc2)C1,AC50,Cytochrome P450 1A2,20 µM (inconclusive)
same,AC50,Cytochrome P450 2C9,31.6 µM (inconclusive)
same,AC50,Cytochrome P450 3A4,inconclusive
Cc1c(C(=O)N/N=C/c2ccc(Cl)cc2)[nH]c2ccc(Cl)cc12,EC50,[11],2.61 µM (active)
same,EC50,Streptokinase A,> 150 µM (not active)
same,EC50,Streptococcus,10.9 µM (active)
same,IC50,[10],> 80 µM (inactive)
CC(=O)Oc1ccc(C(=O)Cc2ccccn2)c(O)c1,AC50,Escherichia coli,27.9 µM (active)
CCN1CCN(Cc2ccc(NC(=O)c3cc(NC(=O)C(=O)c4c[nH]c5ccccc45)cc(OC)c3)cc2C(F)(F)F)CC1,EC50,[12],8.53 µM (active)
same,EC50,[13],6.9 µM (active)
same,EC50,[14],9.06 µM (active)
same,IC50,Bcl-2-related protein A1,> 20 µM (inactive)
same,IC50,[1],16.8 µM (active)
same,IC50,[2],11.9 µM (active)
same,AC50,INS1,7.13 µM (active)
COC(=O)Cc1cc(O)n2nc(C)c(-c3ccccc3)c2n1,AC50,Cytochrome P450 3A4,inconclusive
COc1ccc(S(=O)(=O)N2N=C(C)Oc3ccccc3C2=O)cc1,IC50,[10],> 80 µM (inactive)
O=C(c1ccccc1F)c1cn(Cc2ccccc2)c2ccccc12,AC50,Cytochrome P450 2C9,35.5 µM (inconclusive)
same,AC50,Cytochrome P450 3A4,inconclusive
O=C(Oc1c(-c2ccccc2)c(=O)n2c3c(cccc13)CC2)c1ccc(F)cc1,IC50,Cysteine protease ATG4B,14.1 µM (active)
same,IC50,Phospholipase A2,10.9 µM (active)
COC(=O)C(C)Oc1cc(C)cc2oc(=O)c3c(c12)CCCC3 (configuration not stated),AC50,Escherichia coli,28.2 µM (active)
